Values of other authors as cited in patent US12565477B2, “Preparation method for chlorinated compound” (JIANGSU KANION PHARMACEUTICAL CO., LTD., priority 2020, dated 2026).
Entries after “also recorded” stand apart in the source; their conditions may differ. Read-outs that look alike come from different tables or passages of the source.

Key:
[1] = human; for Percentage of administered dose: 0-144 h, after Lesinurad; for Metabolites found in humans after Lesinurad administration (in words): clinical data
[2] = Liver microsome, Monkey, in vitro
[3] = Hepatocyte, Rat, in vitro
[4] = Hepatocyte, Dog, in vitro
[5] = Liver microsome, Dog, in vitro
[6] = Liver microsome, Human, in vitro
[7] = Hepatocyte, Human, in vitro
[8] = Hepatocyte, Monkey, in vitro
[9] = biological target: T1, URAT1 (Homo sapiens, UniProt Q96S37)
T1 construct: URAT1 is an important kidney anion transporter located on the brush border membrane of epithelial cells of renal tubules; host or cells: kidney of treated patients (endogenous)
T1 sequence (Q96S37 1-553): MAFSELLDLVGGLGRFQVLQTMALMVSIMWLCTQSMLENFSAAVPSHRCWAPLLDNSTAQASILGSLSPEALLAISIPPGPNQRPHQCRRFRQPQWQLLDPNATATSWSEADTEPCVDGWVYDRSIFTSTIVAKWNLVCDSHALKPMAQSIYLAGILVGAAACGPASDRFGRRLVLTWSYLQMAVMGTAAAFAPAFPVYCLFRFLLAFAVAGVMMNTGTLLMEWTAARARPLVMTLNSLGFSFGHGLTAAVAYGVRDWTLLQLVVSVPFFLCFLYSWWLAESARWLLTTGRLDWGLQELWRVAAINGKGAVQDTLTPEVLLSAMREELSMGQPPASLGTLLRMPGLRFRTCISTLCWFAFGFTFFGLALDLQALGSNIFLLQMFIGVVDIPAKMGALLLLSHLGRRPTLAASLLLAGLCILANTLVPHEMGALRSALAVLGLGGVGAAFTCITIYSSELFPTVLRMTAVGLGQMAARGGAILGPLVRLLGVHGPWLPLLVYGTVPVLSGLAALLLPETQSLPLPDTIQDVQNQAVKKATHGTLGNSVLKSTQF

[10] = Liver microsome, Rat, in vitro

| SMILES | Percentage of administered dose ([1]; Feces) | Share of M3, M4 and Lesinurad detected (Total 100) [2] | Percentage of administered dose ([1]; Urine) | Metabolites found in humans after Lesinurad administration (in words) [1] | Share of M3, M4 and Lesinurad detected (Total 100) [3] | Share of M3, M4 and Lesinurad detected (Total 100) [4] | Share of M3, M4 and Lesinurad detected (Total 100) [5] | Share of M3, M4 and Lesinurad detected (Total 100) [6] | Share of M3, M4 and Lesinurad detected (Total 100) [7] | Share of M3, M4 and Lesinurad detected (Total 100) [8] | Additional effect of combined medication versus xanthine oxidase inhibitor alone ([9]; Lesinurad 200 mg/day with XOI) | Toxic side effects (kidney-related adverse events, especially kidney stone) ([9]; Lesinurad 400 mg/day) | Additional effect of combined medication ([9]; Lesinurad 400 mg/day (high dose) with XOI) | Share of M3, M4 and Lesinurad detected (Total 100) [10] |
| --- | --- | --- | --- | --- | --- | --- | --- | --- | --- | --- | --- | --- | --- | --- |
| O=C(O)CSc1nncn1-c1ccc(C2(O)CC2)c2ccccc12 [Compound M5] | 3.6% | – | – | – | – | – | – | – | – | – | – | – | – | – |
| O=C(O)CSc1nnc(Br)n1-c1ccc(C2(O)CC2)c2ccccc12 [Compound M3] | 0.3% | 7.9% | 12.0% | most predominant metabolites | not detected | not detected | – | – | – | – | – | – | – | – |
| O=C(O)CSc1nncn1-c1ccc(C2CC2)c2ccccc12 [Compound M2] | 4.8% | – | 0.3% | – | – | – | – | – | – | – | – | – | – | – |
| O=C(O)CSc1nnc(Br)n1-c1ccc(C2CC2)c2c1C=CC(O)C2O (stereo not drawn) [Compound M4] | 5.0% | – | 15.7% | specifically detected in human metabolites; also recorded: most predominant metabolites | not detected | not detected | – | – | – | – | – | – | – | – |
| O=C(O)CSc1nnc(Br)n1-c1ccc(C2CC2)c2ccccc12 [Lesinurad] | 1.5% | 92.1% | 31.3% | – | 100% | 100% | 100% | 100% | 92.1% | 98.1% | not very significant | significantly increased toxic side effects | higher additional effect | 100% |
